According to PMC6576746, “Rational discovery of dual-indication multi-target PDE/Kinase inhibitor for precision anti-cancer therapy using structural systems pharmacology” (PLoS Computational Biology, 2019):

Experiments:
Assay in all cases: cells
Parameters in all cases: species or system panel of human cancer cell lines; Eurofins OncoPanel proliferation; nuclei count by high-content fluorescence imaging, 10-point dose response
A-704 = conditions: Homo sapiens, A704, 72 h, cell count, 3 days
Procedure, shortened: (§1)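 Ten half-log concentrations from 100 μM (0.1% DMSO max) applied one day post-seeding, 3-day exposure at 37°C; untreated time-zero plate for GI50. Readout is nuclear cell count by automated fluorescence imaging, giving EC50, IC50, GI50 and 0–10 activity area.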

CA46 = conditions: Homo sapiens, CA46, 72 h, cell count, 3 days
Procedure, shortened: as §1

Daudi = conditions: Homo sapiens, Daudi, 72 h, cell count, 3 days
Procedure, shortened: as §1

EB-3 = conditions: Homo sapiens, EB-3, 72 h, cell count, 3 days
Procedure, shortened: as §1

HCT-15 = conditions: Homo sapiens, HCT-15, 72 h, cell count, 3 days
Procedure, shortened: as §1

HepG2 = conditions: Homo sapiens, HepG2, 72 h, cell count, 3 days
Procedure, shortened: as §1

Jurkat = conditions: Homo sapiens, Jurkat, 72 h, cell count, 3 days
Procedure, shortened: as §1

KG-1 = conditions: Homo sapiens, KG-1, 72 h, cell count, 3 days
Procedure, shortened: as §1

KU812 = conditions: Homo sapiens, KU812, 72 h, cell count, 3 days
Procedure, shortened: as §1

MV-4-11 = conditions: Homo sapiens, MV4-11, 72 h, cell count, 3 days
Procedure, shortened: as §1

NCI-H295R = conditions: Homo sapiens, NCI-H295R, 72 h, cell count, 3 days
Procedure, shortened: as §1

NTERA-2 cl.D1 = conditions: Homo sapiens, NTERA-2-cl-D1, 72 h, cell count, 3 days
Procedure, shortened: as §1

PSN-1 = conditions: Homo sapiens, PSN1, 72 h, cell count, 3 days
Procedure, shortened: as §1

Ramos (RA 1) = conditions: Homo sapiens, Ramos, 72 h, cell count, 3 days
Procedure, shortened: as §1

[1] = 50% of maximum possible response

IC50 (Daudi; [1]): 16.3 µM
GI50 (Daudi; corrected for time zero): 14.2 µM
EC50 (Daudi; curve inflection point): 15.3 µM
IC50 (HCT-15; [1]): 32.1 µM
GI50 (HCT-15; corrected for time zero): 31 µM
EC50 (HCT-15; curve inflection point): 30.8 µM
IC50 (HepG2; [1]): 42.1 µM
GI50 (HepG2; corrected for time zero): 36.7 µM
EC50 (HepG2; curve inflection point): 42.1 µM
IC50 (Jurkat; [1]): 22.1 µM
GI50 (Jurkat; corrected for time zero): 18.2 µM
EC50 (Jurkat; curve inflection point): 22.1 µM
IC50 (MV-4-11; [1]): 13.1 µM
GI50 (MV-4-11; corrected for time zero): 9.2 µM
EC50 (MV-4-11; curve inflection point): 12.6 µM
IC50 (NCI-H295R; [1]): 91.6 µM
GI50 (NCI-H295R; corrected for time zero): 57.1 µM
EC50 (NCI-H295R; curve inflection point): 91.6 µM
IC50 (Ramos (RA 1); [1]): 24.1 µM
GI50 (Ramos (RA 1); corrected for time zero): 21.2 µM
EC50 (Ramos (RA 1); curve inflection point): 24.1 µM
Compound: C[C@@H]1CC(=O)NN=C1c1ccc(NN=C(C#N)C#N)cc1 [levosimendan]
IC50 (A-704; [1]): > 100 µM
GI50 (A-704; corrected for time zero): 64.7 µM
EC50 (A-704; curve inflection point): > 100 µM
IC50 (CA46; [1]): 13.2 µM
GI50 (CA46; corrected for time zero): 11 µM
EC50 (CA46; curve inflection point): 13.2 µM
IC50 (EB-3; [1]): 30 µM
GI50 (EB-3; corrected for time zero): 23.6 µM
EC50 (EB-3; curve inflection point): 30 µM
IC50 (KG-1; [1]): 21.7 µM
GI50 (KG-1; corrected for time zero): 13.5 µM
EC50 (KG-1; curve inflection point): 19.2 µM
IC50 (KU812; [1]): 70.3 µM
GI50 (KU812; corrected for time zero): 48.8 µM
EC50 (KU812; curve inflection point): 70.3 µM
IC50 (NTERA-2 cl.D1; [1]): 11.8 µM
GI50 (NTERA-2 cl.D1; corrected for time zero): 9.76 µM
EC50 (NTERA-2 cl.D1; curve inflection point): 11.6 µM
IC50 (PSN-1; [1]): 12.8 µM
GI50 (PSN-1; corrected for time zero): 11.6 µM
EC50 (PSN-1; curve inflection point): 11.8 µM
